Results on one molecule are retold here after patent US20120190620A1, “METHODS TO IDENTIFY TARGETS AND MOLECULES REGULATING PURINOSOMES AND THEIR USES” (priority 2010, published 2012).

What all share (type): cell-based, human
Test [1] has as its system HeLa cells. As to the kind of experiment: Epic label-free biosensor DMR assay of compound-induced signals in HeLa cells. The conditions noted are these: FIG. 9A. The source says: HeLa cells were obtained from American Type Cell Culture (Manassas, Va.). This cervical cancer cell line was maintained in regular serum medium (i.e., minimum essential medium (MEM) (Invitrogen) supplemented with 10% fetal bovine serum (FBS) and 1% Penicillin/streptomycin). To investigate the effects of purine depletion on the purinosome formation and dissociation, HeLa cells were maintained for at least two passages in “purine-depleted medium” prior cell assays. The purine depleted medium is a medium consisting of Roswell Park Memorial Institute 1640 (RPMI 1640) supplemented with dialyzed 5% FBS […]. FBS was dialyzed against 0.9% NaCl at 4° C. for ˜2 days using a 25 kDa MWCO dialysis membrane to remove purines. This process completely removes the purines normally present in FBS.
Cells were typically grown using ˜1 to 2×10^4 cells per well at passage 3 to 15 suspended in 50 μl of the corresponding culture medium in the biosensor microplate, and were cultured at 37° C. under air/5% CO2 for ˜1 day. The confluency for all cells at the time of assays was ˜100%.
(§1) Epic® wavelength interrogation system (Corning Inc., Corning, N.Y.) was used for whole cell sensing. This system consists of a temperature-control unit, an optical detection unit, and an on-board liquid handling unit with robotics. The detection unit is centered on integrated fiber optics, and enables kinetic measures of cellular responses with a time interval of ˜15 sec. The compound solutions were introduced by using the on-board liquid handling unit (i.e., pippetting).
The RWG biosensor is capable of detecting minute changes in local index of refraction near the sensor surface. Since the local index of refraction within a cell is a function of density and its distribution of biomass (e.g., proteins, molecular complexes), the biosensor exploits its evanescent wave to non-invasively detect ligand-induced dynamic mass redistribution in native cells. The evanescent wave extends into the cells and exponentially decays over distance, leading to a characteristic sensing volume of ˜150 nm, implying that any optical response mediated through the receptor activation only represents an average over the portion of the cell that the evanescent wave is sampling. The aggregation of many cellular events downstream the receptor activation determines the kinetics and amplitudes of a ligand-induced DMR.
(§2) For biosensor cellular assays, compound solutions were made by diluting the stored concentrated solutions with the HBSS (1× Hanks balanced salt solution, plus 20 mM Hepes, pH 7.1), and transferred into a 384 well polypropylene compound storage plate to prepare a compound source plate. Two compound source plates were made separately when a two-step assay was performed. In parallel, the cells were washed twice with the HBSS and maintained in 30 μl of the HBSS to prepare a cell assay plate. Both the cell assay plate and the compound source plate(s) were then incubated in the hotel of the reader system. After incubation the baseline wavelengths of all biosensors in the cell assay microplate were recorded and normalized to zero. Afterwards, a 2 to 10 min continuous recording was carried out to establish a baseline, and to ensure that the cells reached a steady state. Cellular responses were then triggered by transferring 10 μl of the compound solutions into the cell assay plate using the on-board liquid handler.
(§3) All studies were carried out at a controlled temperature (28° C.). At least two independent sets of experiments, each with at least three replicates, were performed.

In test [2] the test system is HeLa cells. As to the kind of experiment: Purinosome dynamics DMR screen, sequential order molecule, DMAT, TBB.
Description: A library of agonists for various different GPCRs were used to individually pretreat a confluent layer of Hela cells for about one hour, before sequential stimulation with DMAT and TBB, respectively. The responses were monitored using Epic® system.
A library of molecules targeting endogenous alpha2A and beta2 adrenergic receptors were used to individually pretreat a confluent layer of Hela cells for about one hour, before sequential stimulation with DMAT and TBB, respectively. The responses were monitored using Epic® system.
as §1, §2, §3
(§4) The upstream signaling pathways linking to the purinosome is unknown at the present time. To identify cellular targets and pathways that are involved in regulating purinosome dynamics, a library of agonists for a great number of G protein-coupled receptors and membrane bound receptor tyrosine kinases was made in house, and each agonist was used to stimulate a confluent layer of Hela cells, cultured using high initial seeding number (25k per well for 384 well Epic® cell culture compatible biosensor microplates) in purine rich medium (i.e., regular 10% FCS or FBS). The concentrations for all small organic molecules were 10 micromolar, whereas 1 micromolar for all small peptides, and 100 nanomolar for all protein factors (molecular weight >15k Da). The cellular responses to each agonist were recorded for about 1 hour, and used to determine the functional expression of their corresponding cognate receptor(s).
To examine the receptor whose signaling is involved in regulating the purinosome dynamics, Hela cells were pretreated individually with each agonist for about one hour, followed by sequential stimulation with DMAT (20 micromolar) and TBB (25 micromolar), each step about 1 hour.

Test [3] has as its system HeLa cells. As to the kind of experiment: Purinosome dynamics DMR screen, sequential order molecule, TBB, DMAT.
Description: A library of agonists for various different GPCRs were used to individually pretreat a confluent layer of Hela cells for about one hour, before sequential stimulation with TBB and DMAT, respectively. The responses were monitored using Epic® system.
(§5) (A) The dose-dependent DMR signals of Hela cells induced by alpha2A agonist clonidine. (B) The TBB DMR signal of Hela cells after pretreated with clonidine at different doses. (C) The dose-dependent DMR signals of pertussis toxin (PTX)-pretreated Hela cells induced by alpha2A agonist clonidine. (D) The TBB DMR signal of the PTX-pretreated Hela cells after stimulated with clonidine at different doses. The TBB concentration was 20 μM in both (C) and (D). The clonidine pretreatment occurred about one-hour before the TBB stimulation.
as §1, §2, §3, §4

Another test relates to Gi protein in Hela cells. The conditions noted are these: TBB 20 μM; clonidine at different doses; FIG. 9D. As to the method:
as §5
Epic® wavelength interrogation system (Corning Inc., Corning, N.Y.) was used for whole cell sensing. This system consists of a temperature-control unit, an optical detection unit, and an on-board liquid handling unit with robotics. […]
For biosensor cellular assays, compound solutions were made by diluting the stored concentrated solutions with the HBSS (1× Hanks balanced salt solution, plus 20 mM Hepes, pH 7.1), and transferred into a 384 well polypropylene compound storage plate to prepare a compound source plate. […] Both the cell assay plate and the compound source plate(s) were then incubated in the hotel of the reader system. After incubation the baseline wavelengths of all biosensors in the cell assay microplate were recorded and normalized to zero. […]

The mark [4] stands for this setting: GPCR/RTK agonist library, pretreated about one hour, order agonist, DMAT (20 micromolar), TBB (25 micromolar), FIG. 3.
Setting [5] is: adrenergic receptor ligand library, order ligand, DMAT, TBB, FIG. 5.

Take `Clc1cccc(Cl)c1N=C1NCCN1` [clonidine]: in the test with HeLa cells [1], the “DMR signal triggered by agonist in Hela cells” value was “dose-dependent and saturable DMR signal”. For the same molecule, in the test with HeLa cells [2] (setting [4]), the “modulation of the DMAT DMR signal” value is “suppress” and the “modulation of the TBB DMR signal” value is “potentiate”. Besides, in the test with HeLa cells [2] (setting [5]), the “modulation of the DMAT signal” value was “suppress” and the “modulation of the TBB signal” value is “potentiate”. For the same molecule, the “modulation of the TBB DMR signal” value in the test on HeLa cells [3] (agonist library, order agonist, TBB, DMAT, FIG. 4) was “selectively potentiate”. Moreover, in the test with HeLa cells [3] (clonidine at different doses about one-hour before TBB, FIG. 9B), the “effect of clonidine pretreatment on the TBB response” value is listed as “dose-dependent potentiation”. Also, the “change in the TBB signal of the PTX-treated Hela cells” value in the test on Gi protein in Hela cells was “did not result in any significant change”.
